A short description of data set [1]: Aqueous kinetic solubility assay (CAD). It counts as physicochemical. Particulars: several values in a cell = replicates. How it is done: […] of 10 mM DMSO compound solution is diluted to 100 μl with pH7.4 phosphate buffered saline, equilibrated for 1 hour at room temperature and filtered through Millipore MultiscreenHTS-PCF filter plates (MSSL BPC). The filtrate is quantified by suitably calibrated Charged Aerosol Detector[56].

Data set [2] in a line: AM_Perm (artificial membrane permeability). It counts as in vitro ADME.
Another data set can be described thus: PFI. In kind it is physicochemical. How it is done:
Dose response assays were performed in duplicate on WT PfPKG, HuPKGIα and a mock assay performed in the absence of enzyme (the counterscreen). Comparison of the PfPKG and HuPKGIα IC50 values gave information on selectivity and the counterscreen identified luminescent false positive compounds (see Materials and Methods). Cytotoxicity assays were also performed using a human hepatoma cell line (HepG2)[30]. […] This set of compounds was clustered by similarity using a complete-linkage algorithm and a threshold of 0.55[31]. A total of 79 clusters and 54 singletons were obtained.

A further data set addresses T1, TQ PfPKG (PfPKG_T618Q) (Plasmodium falciparum, UniProt Q8I719, T618Q).
T1 construct: His6 (N); host or cells: E. coli BL21
Briefly: Kinase Glo enzymatic assay, gatekeeper mutant TQ PfPKG. It counts as biochemical, P. falciparum. The protocol:
Taking advantage of the availability of more than 3,000 thiazole derivatives among the GSK compound collection, cluster 3 was thoroughly investigated for potent and selective inhibitors of WT PfPKG. […] We explored the binding mode by also testing compounds on the gatekeeper mutant enzyme TQ PfPKG. […] These two time points were chosen to give an indication of the speed of kill of the compounds. […] A preliminary safety test was performed on human AuroraB and LCK kinases which often underpin toxicity issues. […] Further assays for compound characterization included determination of solubility and cytotoxicity (HepG2 inhibition). Thiazoles have been previously identified as human BRaf inhibitors that are used to treat melanoma.
Protein production was outsourced to the Division of Signal Transduction Therapy, University of Dundee. Briefly, the pTRChis expression vectors (Invitrogen) containing an N-terminally His6-tagged PfPKG wildtype and T618Q were used to transform BL21 cells (protocol adapted from[23]). The cells were grown at 37 °C until the OD600 was 0.4–0.6 then the temperature was reduced to 15 °C and the cells were induced with 250 µM IPTG and grown for a further 16–18 hours before harvesting. The His6-PfPKG was purified on Cobalt agarose followed by gel filtration and the protein was dialysed into 25 mM Hepes pH 7.5, 0.1 mM EGTA, 150 mM NaCl, 50% glycerol and 2 mM DTT.
Initial optimization of the PKG assay was performed manually in 384-well plates and analysed with GraFit 7. The buffer for all assays was 25 mM HEPES pH 7.3 (GIBCO), 10 mM MgCl2 (Sigma), 2 mM DTT (Sigma), 0.01 mM cGMP (Sigma), 0.1 mg/ml BSA (Ambion). Enzymatic activity was tested using a luminescence-based kit (Promega KinaseGlo). Addition of the first reagent depletes the unused ATP and addition of the second reagent converts ADP (product of the kinase reaction) to ATP, which is then measured through a luciferin/luciferase reaction. The amount of luminescence is directly proportional to ATP turnover by the kinase. The kit was chosen because it can be miniaturized to small volumes (i.e. 4 µl) in 1536-well plates, for use in HTS.
We used PKA peptide substrate (SCP0212, Sigma-Aldrich) for WT and TQ PfPKG, dissolved in milliQ water at a final concentration of 5 mM, and Long S6 peptide substrate (produced at the University of Dundee, sequence […]) for HuPKGIα, dissolved in water at a final concentration of 30 mM.
We calculated the Michaelis-Menten (Km) constant for ATP and peptide substrate (PKA or Long S6) for all enzymes using GraphPad Prism (Supplementary Figs 2 and 3 and Supplementary Table 3). In order to identify different types of PKG inhibitors, including ATP competitive or non-competitive inhibitors, as well as inhibitors that bind to the peptide substrate pocket, we performed all assays using ATP and peptide substrate at a concentration equal to the Km. We also determined enzyme activity by calculating ATP turnover (Kcat) over the Km (Supplementary Table 3). The Kcat was calculated as (Vmax*slope)/[E] where Vmax is the maximum velocity and [E] is the concentration of the enzyme.
The plates containing the compounds were prepared at GSK in Upper Providence or Stevenage. Compounds were tested at a single final concentration of 10 µM or in a dose response with a range of concentrations starting from 100 μM to 1.6 nM (1 in 3 serial dilutions). Compounds were dispensed in the plates at the required concentration in a 40 nl volume. All plates (1536-well white Greiner) contained 40 nl of DMSO in lanes 11 and 12 (control 1, 100% enzyme activity) and were empty in lanes 35 and 36 (control 2, 0% enzyme activity). The plates were removed from −20 °C 1 hour before starting the assay. Using a Multidrop Combi dispenser (Thermo Scientific), 2 µl of the buffer containing ATP and the substrate were added to all wells then 2 µl of buffer only were added to column 35 and 36. […]
Background: Kinase-Glo measures the ATP left after a reaction by luminescence.

[3] abbreviates: phosphate buffered saline, pH 7.4, aqueous buffer, kinetic from dmso stock.

Converted amounts (≈) assume the structure as drawn.

T1 sequence (Q8I719 whole entry T618Q): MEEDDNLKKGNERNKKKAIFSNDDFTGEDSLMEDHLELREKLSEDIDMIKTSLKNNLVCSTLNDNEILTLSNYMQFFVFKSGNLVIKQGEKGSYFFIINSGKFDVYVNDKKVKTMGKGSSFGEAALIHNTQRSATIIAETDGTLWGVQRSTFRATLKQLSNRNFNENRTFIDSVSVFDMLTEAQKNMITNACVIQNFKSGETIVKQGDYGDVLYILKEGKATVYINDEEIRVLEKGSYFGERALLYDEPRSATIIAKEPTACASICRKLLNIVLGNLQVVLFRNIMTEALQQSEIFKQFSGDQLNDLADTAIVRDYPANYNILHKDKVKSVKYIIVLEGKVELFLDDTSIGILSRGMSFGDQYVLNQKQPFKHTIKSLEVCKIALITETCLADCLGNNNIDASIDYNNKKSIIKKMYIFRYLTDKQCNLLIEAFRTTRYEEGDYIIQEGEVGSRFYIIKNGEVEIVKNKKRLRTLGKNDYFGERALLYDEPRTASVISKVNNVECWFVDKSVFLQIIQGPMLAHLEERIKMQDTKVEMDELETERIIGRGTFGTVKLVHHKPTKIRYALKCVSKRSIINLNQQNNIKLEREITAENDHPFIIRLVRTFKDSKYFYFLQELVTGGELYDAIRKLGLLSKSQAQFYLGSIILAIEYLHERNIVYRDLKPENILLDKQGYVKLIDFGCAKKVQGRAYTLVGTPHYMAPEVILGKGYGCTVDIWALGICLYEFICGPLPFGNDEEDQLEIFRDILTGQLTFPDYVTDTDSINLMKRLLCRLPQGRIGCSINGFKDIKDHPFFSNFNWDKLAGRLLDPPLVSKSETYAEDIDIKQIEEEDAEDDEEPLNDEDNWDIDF

In data set [1] (setting [3]), `CCn1cc(-c2ccncn2)c(-c2cccc(NS(=O)(=O)c3cc(F)ccc3F)c2)n1` [Compound 2] returned a solubility at 1 h of 412 µM (≈ 182 µg/mL). Further, the AM Perm in data set [2] came to 50.1 ×10⁻⁶ cm/s. The same molecule returned a PFI in the data set “PFI” of 8.0. Further, the IC50 against TQ PfPKG (PfPKG_T618Q) was > 100 µM.

Consider `Cc1ccc(S(C)(=O)=O)cc1Nc1nccc(-c2sc(CC(N)=O)nc2-c2ccccc2)n1` [Compound 3], for which the figures for the solubility at 1 h in data set [1] (setting [3]) and in data set [1] were 138 µM (≈ 66.2 µg/mL) and 124 µM (≈ 59.5 µg/mL), respectively. This molecule yielded an AM Perm in data set [2] of 36.7 ×10⁻⁶ cm/s. Also, the PFI in the data set “PFI” was 7.3. Also, the IC50 against TQ PfPKG (PfPKG_T618Q) stood at 19.1 µM.

For the molecule `CC(C)(CN)c1cc(-c2ccc(Cl)c(O)c2)c(-c2ccncc2)o1` [Compound 4], the concentration in solution in data set [1] (setting [3]) (solubility at 1 h) came to 252 µM (≈ 86.4 µg/mL). Moreover, the AM Perm in data set [2] was found to be 53.1 ×10⁻⁶ cm/s. In “PFI”, this molecule gave a PFI of 6.1. This molecule also showed an IC50 at TQ PfPKG (PfPKG_T618Q) of 36.7 µM.

In data set [2], `CCn1c(-c2nonc2N)nc2c(-c3ccccc3)ncc(CN(C)C3CCN(C)CC3)c21` [Compound 5] returned an AM Perm of 22.9 ×10⁻⁶ cm/s. Moreover, the PFI in “PFI” was found to be 7.7. The same molecule yielded an IC50 against TQ PfPKG (PfPKG_T618Q) of 21.9 µM.

`CNS(=O)(=O)c1cccc(Nc2ccnc(Nc3cccc(S(=O)(=O)NC)c3)n2)c1` [Compound 6] came in with a solubility at 1 h in data set [1] (setting [3]) of 180 µM (≈ 80.7 µg/mL). In addition, the AM Perm in data set [2] is 12.7 ×10⁻⁶ cm/s. Further, the PFI in the data set “PFI” is on record as 6.4. The IC50 against TQ PfPKG (PfPKG_T618Q) stood at 0.188 µM.

`COc1ccc(-c2c(-c3cccc(C(=O)N4CCN(C)CC4)c3)oc3ncnc(N)c23)cc1` [Compound 7] registered a solubility at 1 h in data set [1] (setting [3]) of 180 µM (≈ 79.8 µg/mL). The AM Perm in data set [2] worked out at 32.4 ×10⁻⁶ cm/s. The molecule also came in with a PFI in the data set “PFI” of 6.6. The IC50 against TQ PfPKG (PfPKG_T618Q) was 14.1 µM.

In turn, `COc1ccc(CCNC(=O)CSc2ncnc3[nH]ncc23)cc1OC` [Compound 8] had a solubility at 1 h in data set [1] (setting [3]) of 254 µM (≈ 94.9 µg/mL). The same molecule had an AM Perm in data set [2] of 7 ×10⁻⁶ cm/s. The same molecule came in with a PFI in “PFI” of 5.3. The IC50 on TQ PfPKG (PfPKG_T618Q) amounted to 22.1 µM.

Take `COc1cccc(Nc2nc(-c3ccncc3)cc(N3CCN(C)CC3)n2)c1` [Compound 9]: the solubility at 1 h in data set [1] (setting [3]) amounted to 82 µM (≈ 30.9 µg/mL). Besides, the AM Perm in data set [2] amounted to 59.9 ×10⁻⁶ cm/s. Also, the PFI in the data set “PFI” is reported as 6.6. Further, inhibition on TQ PfPKG (PfPKG_T618Q) was half-maximal at 10 µM (IC50).

As to `COc1cc(CS(C)(=O)=O)ccc1Nc1nc(Nc2cc(F)ccc2C(N)=O)c2cc[nH]c2n1` [Compound 10], the AM Perm in data set [2] was found to be 7.7 ×10⁻⁶ cm/s. In “PFI”, this molecule registered a PFI of 7.3. Moreover, the IC50 against TQ PfPKG (PfPKG_T618Q) turned out to be 0.0248 µM.

For `O=C(N[C@@H](CO)c1ccccc1)c1ccc2cncc(-c3cn[nH]c3)c2n1` [Compound 11], the concentration in solution in data set [1] (setting [3]) (solubility at 1 h) was 4 µM (≈ 1.44 µg/mL). For the same molecule, the AM Perm in data set [2] stood at 8.6 ×10⁻⁶ cm/s. In the data set “PFI”, this molecule showed a PFI of 5.9. This molecule registered an IC50 at TQ PfPKG (PfPKG_T618Q) of 1 µM.

In data set [2], `NCCNCc1ccc(-c2cc3ccncc3cc2OC2CCNCC2)s1` [Compound 12] gave an AM Perm of 1.2 ×10⁻⁶ cm/s. This molecule also displayed a PFI in the data set “PFI” of 2.6. On TQ PfPKG (PfPKG_T618Q), this molecule registered an IC50 of 0.851 µM.

In data set [1] (setting [3]), `CNCCOc1cnc(-c2ccoc2C)c(-c2ccc3cnccc3c2)c1` [Compound 13] showed a solubility at 1 h of 418 µM (≈ 150 µg/mL). The AM Perm in data set [2] was 43.1 ×10⁻⁶ cm/s. Also, the PFI in the data set “PFI” came out at 6.1. The same molecule had an IC50 at TQ PfPKG (PfPKG_T618Q) of 1.3 µM.

For the molecule `O=C(c1cccc(OCc2cccnc2)c1)N1CCc2sccc2C1CN1CCCCC1` (stereo not drawn) [Compound 14], the concentration in solution in data set [1] (setting [3]) (solubility at 1 h) came to 168 µM (≈ 75.2 µg/mL). Further, the AM Perm in data set [2] is 55.1 ×10⁻⁶ cm/s. In the data set “PFI”, the PFI is listed as 6.9. Moreover, the IC50 on TQ PfPKG (PfPKG_T618Q) is 0.473 µM.

`Nc1ccc2c(-c3ccncc3)c(-c3ccc(Cl)c(O)c3)[nH]c2n1` [Compound 15]: the AM Perm in data set [2] was found to be 11 ×10⁻⁶ cm/s. The same molecule had a PFI in the data set “PFI” of 6.1. Half-maximal inhibition against TQ PfPKG (PfPKG_T618Q) (IC50) required 24 µM.

`Nc1nc(Nc2cccc3cnccc23)nn1C(=O)C1CCCCC1` [Compound 16]: in data set [1] (setting [3]), the solubility at 1 h stood at 69 µM (≈ 23.2 µg/mL). Also, the AM Perm in data set [2] stood at 33.9 ×10⁻⁶ cm/s. This molecule displayed a PFI in the data set “PFI” of 7.6. The molecule further registered an IC50 against TQ PfPKG (PfPKG_T618Q) of 1.8 µM.

By solubility is commonly meant the concentration that dissolves in the medium under given conditions. One may read the IC50 as the midpoint of a concentration-inhibition curve.

The values are drawn from publication PMC6504873, “High-throughput screening of the Plasmodium falciparum cGMP-dependent protein kinase identified a thiazole scaffold which kills erythrocytic and sexual stage parasites” (Scientific Reports, 2019).
